Reference: patent US20230085307A1, “PYRIDAZINONE COMPOUND AND HERBICIDE” (NISSAN CHEMICAL CORPORATION, priority 2019, published 2023)

What was measured:
corn [1] = assay: Test Example 4: effect on crop by soil treatment (Table 19, symbol c); format: in vivo; details: amount of applied herbicide 320 g/ha
Text: [Test Example 4] Herbicidal Effect Test by Soil Treatment
Sterilized diluvial soil was placed in a plastic box having a length of 21 cm, a width of 13 cm, and a depth of 7 cm. The seeds of each of southern crabgrass, green foxtail, barnyard grass, wild oat, blackgrass, Italian ryegrass, windgrass, velvetleaf, redroot pigweed, lambsquarters, chickweed, false cleavers, persian speedwell, corn, soybean, rice, wheat, beet, and rapeseed were sowed in a spot-like manner and covered with the soil having a thickness of about 1.5 cm. Subsequently, the emulsion agent of the compound of the present invention prepared according to Formulation Example 2 was diluted with water so as to achieve a predetermined herbicide amount, and the diluted emulsion agent was uniformly applied to the surface of the soil with a small-sized spray. The plastic box was placed in a greenhouse at 25° C. to 30° C. for growth of the plants. Three weeks after the herbicide application, the effect of the herbicide on each plant was evaluated according to the criteria of Test Example 1.

velvetleaf [2] = assay: Test Example 4: herbicidal effect by soil treatment (Table 19, symbol M); format: in vivo, velvetleaf (Abutilon theophrasti); details: amount of applied herbicide 320 g/ha
In short: (§1)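 Soil-surface application: an emulsion agent diluted with water to the predetermined dose is sprayed uniformly over seeds lying under roughly 1.5 cm of sterilized diluvial soil. Boxes stay in a greenhouse at 25° C. to 30° C. Three weeks later, each species is graded on previously defined criteria.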

Chinese sprangletop = assay: Test Example 3: herbicidal effect by foliage application, Wagner pot (Table 18, symbol D); format: in vivo, chinese sprangletop (Leptochloa chinensis); details: 320 g/ha
In short: (§2)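 Plants were sown in alluvial soil held under 0.1–0.5 cm standing water and grown 14 days in a greenhouse at 25–30 °C. An emulsifiable formulation, water-diluted to the set dose, was then sprayed onto the foliage, and effects were scored three weeks later using previously defined criteria.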

wild oat = assay: Test Example 4: herbicidal effect by soil treatment (Table 19, symbol I); format: in vivo, wild oat (Avena fatua); details: amount of applied herbicide 320 g/ha
In short: as §1

barnyard grass [3] = assay: Test Example 5: herbicidal effect by foliage application, plastic box (Table 20, symbol H); format: in vivo, barnyard grass (Echinochloa crus-galli); details: foliage application, AAH 320 g/ha, three weeks after application
In short: (§3)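 Sow seeds spot-wise in sterilized diluvial soil; cover with ~1.5 cm soil. Grow 14 days in greenhouse, 25° C. to 30° C. Spray foliage with emulsion diluted to predetermined amount. Rate effect after 3 weeks.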

lambsquarters = assay: Test Example 4: herbicidal effect by soil treatment (Table 19, symbol O); format: in vivo, lambsquarters (Chenopodium album); details: amount of applied herbicide 320 g/ha
In short: as §1

southern crabgrass = assay: Test Example 5: herbicidal effect by foliage application, plastic box (Table 20, symbol F); format: in vivo, southern crabgrass (Digitaria ciliaris); details: foliage application, AAH 320 g/ha, three weeks after application
In short: as §3

rapeseed [4] = assay: Test Example 5: effect on crop by foliage application, plastic box (Table 20, symbol g); format: in vivo; details: AAH 320 g/ha, three weeks after application
In short: as §3

rice flat sedge = assay: Test Example 3: herbicidal effect by foliage application, Wagner pot (Table 18, symbol E); format: in vivo, rice flat sedge (Cyperus iria); details: 320 g/ha
In short: as §2

barnyard grass [5] = assay: Test Example 3: herbicidal effect by foliage application, Wagner pot (Table 18, symbol H); format: in vivo, barnyard grass (Echinochloa crus-galli); details: 320 g/ha
In short: as §2

blackgrass = assay: Test Example 4: herbicidal effect by soil treatment (Table 19, symbol J); format: in vivo, blackgrass (Alopecurus myosuroides); details: amount of applied herbicide 320 g/ha
In short: as §1

chickweed = assay: Test Example 5: herbicidal effect by foliage application, plastic box (Table 20, symbol P); format: in vivo, common chickweed (Stellaria media); details: foliage application, AAH 320 g/ha, three weeks after application
In short: as §3

velvetleaf [6] = assay: Test Example 5: herbicidal effect by foliage application, plastic box (Table 20, symbol M); format: in vivo, velvetleaf (Abutilon theophrasti); details: foliage application, AAH 320 g/ha, three weeks after application
In short: as §3

false cleavers = assay: Test Example 4: herbicidal effect by soil treatment (Table 19, symbol Q); format: in vivo, false cleavers (Galium spurium); details: amount of applied herbicide 320 g/ha
In short: as §1

Italian ryegrass [7] = assay: Test Example 4: herbicidal effect by soil treatment (Table 19, symbol K); format: in vivo, Italian ryegrass (Lolium multiflorum); details: amount of applied herbicide 320 g/ha
In short: as §1

Italian ryegrass [8] = assay: Test Example 5: herbicidal effect by foliage application, plastic box (Table 20, symbol K); format: in vivo, Italian ryegrass (Lolium multiflorum); details: foliage application, AAH 320 g/ha, three weeks after application
In short: as §3

corn [9] = assay: Test Example 5: effect on crop by foliage application, plastic box (Table 20, symbol c); format: in vivo; details: AAH 320 g/ha, three weeks after application
In short: as §3

green foxtail = assay: Test Example 5: herbicidal effect by foliage application, plastic box (Table 20, symbol G); format: in vivo, green foxtail (Setaria viridis); details: foliage application, AAH 320 g/ha, three weeks after application
In short: as §3

directly sowed rice = assay: Test Example 3: effect on crop by foliage application, Wagner pot (Table 18, symbol b); format: in vivo; details: 320 g/ha
Method: [Test Example 3] Herbicidal Effect Test by Foliage Application After alluvial soil was placed into 1/10000 are of Wagner pot, water was poured and mixed to form a submerged condition having a water depth of 0.1 cm to 0.5 cm. Seeds of barnyard grass, Chinese sprangletop, rice flat sedge, and rice were sowed and the pot was placed in a greenhouse at 25° C. to 30° C. for growth of the plants. After 14-day growth of the plants, the emulsion agent of the compound of the present invention prepared according to Formulation Example 2 was diluted with water so as to achieve a predetermined herbicide amount, and the diluted emulsion agent was uniformly applied to a foliage part with a small-sized spray. Three weeks after the herbicide application, the effect of the herbicide on each plant was evaluated according to the criteria of Test Example 1.

rapeseed [10] = assay: Test Example 4: effect on crop by soil treatment (Table 19, symbol g); format: in vivo; details: amount of applied herbicide 320 g/ha
In short: as §1

Cc1nn(C)c(=O)c(-c2c(-n3cc(Cl)cn3)sc3ccccc23)c1O [Compound No. 1-097, 5-hydroxy-2,6-dimethyl-4-(2-(4-chloro-1H-pyrazol-1-yl)benzo[b]thiophen-3-yl)pyridazin-3(2H)-one]
effect rating on crop, c: corn (corn [1]): 0 (Herbicidal rate of 5% or less (almost no effect))
herbicidal effect rating, M: velvetleaf (velvetleaf [2]): 1 (Herbicidal rate of 5% or more and less than 20%)
herbicidal effect on D (Chinese sprangletop), rating 0-5 (Chinese sprangletop): 0 (Herbicidal rate of 5% or less (almost no effect))
herbicidal effect rating, I: wild oat (wild oat): 0 (Herbicidal rate of 5% or less (almost no effect))
H: barnyard grass, herbicidal effect (barnyard grass [3]): 0 (Herbicidal rate of 5% or less (almost no effect))
herbicidal effect rating, O: lambsquarters (lambsquarters): 4 (Herbicidal rate of 70% or more and less than 90%)
F: southern crabgrass, herbicidal effect (southern crabgrass): 0 (Herbicidal rate of 5% or less (almost no effect))
g: rapeseed, effect on crop (rapeseed [4]): 5 (Herbicidal rate of 90% or more (almost completely withered))
herbicidal effect on E (rice flat sedge), rating 0-5 (rice flat sedge): 4 (Herbicidal rate of 70% or more and less than 90%)
herbicidal effect on H (barnyard grass), rating 0-5 (barnyard grass [5]): 0 (Herbicidal rate of 5% or less (almost no effect))
herbicidal effect rating, J: blackgrass (blackgrass): 0 (Herbicidal rate of 5% or less (almost no effect))
P: chickweed, herbicidal effect (chickweed): 5 (Herbicidal rate of 90% or more (almost completely withered))
M: velvetleaf, herbicidal effect (velvetleaf [6]): 5 (Herbicidal rate of 90% or more (almost completely withered))
herbicidal effect rating, Q: false cleavers (false cleavers): 0 (Herbicidal rate of 5% or less (almost no effect))
herbicidal effect rating, K: Italian ryegrass (Italian ryegrass [7]): 0 (Herbicidal rate of 5% or less (almost no effect))
K: Italian ryegrass, herbicidal effect (Italian ryegrass [8]): 2 (Herbicidal rate of 20% or more and less than 40%)
c: corn, effect on crop (corn [9]): 0 (Herbicidal rate of 5% or less (almost no effect))
G: green foxtail, herbicidal effect (green foxtail): 0 (Herbicidal rate of 5% or less (almost no effect))
effect on crop b (directly sowed rice), rating 0-5 (directly sowed rice): 0 (Herbicidal rate of 5% or less (almost no effect))
effect rating on crop, g: rapeseed (rapeseed [10]): 0 (Herbicidal rate of 5% or less (almost no effect))
